Entries after “also recorded” stand apart in the source; their conditions may differ. Like-named read-outs stand apart in the source and are kept apart here.
Assays:
[1] = system: MDA-231 GFP cells; assay: Cell migration (scratch wound) assay, MDA-231; assay type: cell-based; conditions: 33 μM preliminary screen, 24 h, MDA231, FIG. 7/8
Experimental: A cell migration assay was performed as follows. A coverslip was placed in a 3 cm dish and 0.5×10^6 cells (in 10% FCS-RPMI) was seeded, per 3 cm dish. The cells were left to grow for 24 hours so as to obtain a confluent layer of cells on the coverslip and a scratch was made with a pipette tip (p200) and loosely attached cells were washed off. The medium was replaced with a low serum (0.2% serum) medium to reduce the level of proliferation.
Cells were fixed in buffered formalin and scratches were imaged with ImageJ and the extent of wound closure was calculated.
A series of 11 compounds were assayed in scratch wound assays to evaluate the effect of CA-IX inhibition on cellular migration in air and hypoxia. […] Cells were then cultured in air or hypoxia and migration analysed 24 h later relative to vehicle treated controls.

[2] = target: T1, hCA I (Homo sapiens, UniProt P00915); assay: CA-catalysed CO2 hydration stopped-flow inhibition assay, hCA I; assay type: biochemical; conditions: Table 2, sulfamides 7 and 8
T1 construct: made in house
Experimental: (§1) Typically, CA inhibition is measured by assaying for CA-catalysed CO2 hydration activity using an appropriate indicator dye. […] Stopped flow spectrophotometry may used to measure the rate of hydration activity.
(§2) The uncatalyzed rates were determined in the same manner and subtracted from the total observed rates. Stock solutions of inhibitor (0.1 mM) were prepared in distilled-deionized water and dilutions up to 0.01 nM were done thereafter with distilled-deionized water Inhibitor and enzyme solutions were preincubated together for 15 min at room temperature in order to allow for the formation of the E-I complex. The inhibition constants were obtained by non-linear least-squares methods using PRISM 3, as reported earlier,^1,2,3 and represent the mean from at least three different determinations. All enzymes were recombinant ones, obtained as reported earlier.^2,3 • 1. Khalifah, R. G. The carbon dioxide hydration activity of carbonic anhydrase. I. Stop-flow kinetic studies on the native human isoenzymes B and C. […] Alterio, V.; Hilvo, M.; Di Fiore, A.; Supuran, C. T.; Pan, P.; Parkkila, S.; Scaloni, A.; Pastorek, J.; Pastorekova, S.; Pedone, C.; Scozzafava, A.; Monti, S. M.; De Simone, G. Crystal structure of the extracellular catalytic domain of the tumor-associated human carbonic anhydrase IX. […] T. Carbonic anhydrase inhibitors: X-ray and molecular modeling study for the interaction of a fluorescent antitumor sulfonamide with isozyme II and IX. J. Am. Chem. Soc. […] J. Am. Chem. Soc.

[3] = target: T2, hCA II (Homo sapiens, UniProt P00918); assay: CA-catalysed CO2 hydration stopped-flow inhibition assay, hCA II; assay type: biochemical; conditions: Table 2, sulfamides 7 and 8
T2 construct: made in house
Experimental: as §1, §2

[4] = target: T3, hCA IX (Homo sapiens, UniProt Q16790); assay: CA-catalysed CO2 hydration stopped-flow inhibition assay, hCA IX; assay type: biochemical; conditions: for KiCAII/KiCAIX: Table 2, selectivity ratio
T3 construct: made in house
Experimental: as §1, §2

[5] = target: T4, hCA XII (Homo sapiens, UniProt O43570); assay: CA-catalysed CO2 hydration stopped-flow inhibition assay, hCA XII; assay type: biochemical; conditions: Table 2, sulfamides 7 and 8
T4 construct: made in house
Experimental: as §1, §2

[6] = system: EV/2 CA IX expressing cells (HT-29); assay: FC11-489A bis binding, plate reader, EV/2 cells; assay type: cell-based, human; conditions: 100 μM
Description: (§3) Plates were placed in a BMG microplate reader FLUOstare Omega using following protocol: Fluorescence intensity—Well scanning using 5×5 scan matrix in a diameter of 10 mm with 10 flashes per scan point, a gain of 1000 and 355 nm-460 nm filter settings.

[7] = system: 94/1 CA IX knock down cells (HT-29); assay: FC11-489A bis binding, plate reader, 94/1 cells; assay type: cell-based, human; conditions: 100 μM, normoxia, hypoxia, reoxygenation
Description: as §3

[8] = system: EV/2 CA IX expressing cells (HT-29); assay: FC11-489A bis binding, fluorescence staining, EV/2 cells; assay type: cell-based, human; conditions: 100 μM
Experimental: (§4) Cells were mounted onto slides with Fluorescence Mounting Medium (DAKO) and analyzed with a Zeiss Axioskop fluorescence microscope using FIT-C filter settings.
(§5) Each staining picture was loaded into Image) analysis software (Image J 1.38x NIH USA, http://rsb.info.nih.gov/ij/Java 1.5.0—17), converted to 8-bit images, thresholded to exclude areas without cells and all remaining pixels were analyzed for their intensity.
(§6) For each oxygen condition, for at least 350 pixels fluorescence intensity was analyzed.

[9] = system: 94/1 CA IX knock down cells (HT-29); assay: FC11-489A bis binding, fluorescence staining, 94/1 cells; assay type: cell-based, human; conditions: 100 μM, normoxia, hypoxia, reoxygenation, listed as FC11-489A bis
Experimental: as §4, §5, §6

[10] = system: EV/2 CA IX expressing cells (HT-29); assay: FC11-489A bis binding, flow cytometer, EV/2 cells; conditions: 100 μM, FACS
Experimental: (§7) Single suspensions were obtained by passing cells through 70 μm nylon cell strainers (BD Biosciences). Mean fluorescence intensity was analyzed using a FACSort flow cytometer (BD Biosciences) using FIT-C filter settings.

[11] = system: 94/1 CA IX knock down cells (HT-29); assay: FC11-489A bis binding, flow cytometer, 94/1 cells; conditions: 100 μM, normoxia, hypoxia, reoxygenation, FACS
Experimental: as §7

[12] = Table 2, sulfamides 7 and 8, read-out: Ki hCAIX

T4 sequence (O43570 25-354): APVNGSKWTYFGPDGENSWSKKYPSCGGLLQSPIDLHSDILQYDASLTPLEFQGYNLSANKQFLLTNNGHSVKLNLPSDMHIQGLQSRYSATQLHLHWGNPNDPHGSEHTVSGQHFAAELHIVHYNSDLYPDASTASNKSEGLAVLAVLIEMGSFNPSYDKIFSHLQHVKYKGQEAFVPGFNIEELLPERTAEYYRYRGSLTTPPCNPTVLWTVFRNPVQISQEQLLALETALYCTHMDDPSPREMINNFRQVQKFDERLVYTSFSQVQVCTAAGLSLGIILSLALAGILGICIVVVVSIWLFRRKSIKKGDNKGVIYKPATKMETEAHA
T1 sequence (P00915 whole entry): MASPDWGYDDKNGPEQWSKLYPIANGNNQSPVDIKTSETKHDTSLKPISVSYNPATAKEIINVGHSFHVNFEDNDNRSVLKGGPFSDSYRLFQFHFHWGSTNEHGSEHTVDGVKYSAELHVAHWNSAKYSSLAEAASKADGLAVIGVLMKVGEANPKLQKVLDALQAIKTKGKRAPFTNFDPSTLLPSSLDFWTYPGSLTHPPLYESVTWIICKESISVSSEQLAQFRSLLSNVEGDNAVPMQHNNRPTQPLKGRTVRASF

Row | Ki [2] | Ki [3] | KiCAII/KiCAIX [4] | Ki [4, 12] | Ki [5] | SMILES | also measured
1 |  |  |  |  |  | NS(=O)(=O)Oc1ccc(NC(=O)Nc2ccc(Oc3ccccc3)cc2)cc1 [Compound 3h, 4-[(4-phenoxyphenyl)ureido]phenyl sulfamate] | cellular migration in air and hypoxia relative to vehicle [1]: inhibitory effects against hypoxic cell migration at concentrations that had minimal effects in air
2 |  |  |  |  |  | NS(=O)(=O)Oc1ccc(NC(=O)Nc2c(F)c(F)c(F)c(F)c2F)cc1 [Compound 3i, 4-[(pentafluorophenyl)ureido]phenyl sulfamate] | cellular migration in air and hypoxia relative to vehicle [1]: inhibitory effects against hypoxic cell migration at concentrations that had minimal effects in air
3 | 2560 nM | 157 nM | 14.3 | 11 nM | 8 nM | NS(=O)(=O)Nc1ccc(NC(=O)Nc2ccc(CCc3ccccc3)cc2)cc1 [Compound 7m] | 
4 | 1540 nM | 312 nM | 19.5 | 16 nM | 9 nM | CCCCOc1ccc(NC(=O)Nc2ccc(NS(N)(=O)=O)cc2)cc1 [Compound 7n] | 
5 | 3760 nM | 315 nM | 7.3 | 43 nM | 25 nM | NS(=O)(=O)Nc1ccc(NC(=O)Nc2ccc(Cl)cc2)cc1 [Compound 7o] | 
6 | 2500 nM | 146 nM | 14.6 | 10 nM | 8 nM | NS(=O)(=O)Nc1ccc(NC(=O)Nc2ccc(Cc3ccccc3)cc2)cc1 [Compound 7p] | 
7 | 3000 nM | 156 nM | 14.2 | 11 nM | 10 nM | NS(=O)(=O)Nc1ccc(CNC(=O)Nc2ccccc2)cc1 [Compound 8a] | 
8 | 2460 nM | 131 nM | 14.5 | 9 nM | 5 nM | NS(=O)(=O)Nc1ccc(CNC(=O)Nc2ccc(Cc3ccccc3)cc2)cc1 [Compound 8b] | 
9 | 2310 nM | 365 nM | 33.2 | 11 nM | 13 nM | COc1ccc(NC(=O)NCc2ccc(NS(N)(=O)=O)cc2)cc1 [Compound 8c] | 
10 | 2840 nM | 233 nM | 23.3 | 10 nM | 8 nM | NS(=O)(=O)Nc1ccc(CNC(=O)Nc2ccc(F)cc2)cc1 [Compound 8d] | 
11 | 3590 nM | 138 nM | 5.8 | 24 nM | 14 nM | CC(=O)c1ccc(NC(=O)NCc2ccc(NS(N)(=O)=O)cc2)cc1 [Compound 8e] | 
12 | 1340 nM | 48 nM | 4.0 | 12 nM | 22 nM | CN(C)c1ccc(NC(=O)NCc2ccc(NS(N)(=O)=O)cc2)cc1 [Compound 8f] | 
13 | 3800 nM | 343 nM | 16.3 | 21 nM | 30 nM | Cc1ccccc1NC(=O)NCc1ccc(NS(N)(=O)=O)cc1 [Compound 8g] | 
14 | 1650 nM | 47 nM | 2.8 | 17 nM | 12 nM | NS(=O)(=O)Nc1ccc(CNC(=O)Nc2ccccc2Cl)cc1 [Compound 8h] | 
15 |  |  |  |  |  | NS(=O)(=O)Oc1ccc(NC(=S)Nc2ccc(-c3c4ccc(=O)cc-4oc4cc(O)ccc34)c(C(=O)O)c2)cc1 [Compound 20, 2-(3-Hydroxy-6-oxo-6H-xanthen-9-yl)-5-(3-(4-(sulfamoyloxy)phenyl)thioureido)benzoic acid] | Ki ([4]; Table 3, stopped flow assay): 14 nM; binding upon reoxygenation versus hypoxic conditions ([6]; 24 h hypoxia then 1 h air): dramatically reduced; binding (fluorescence intensity), hypoxia versus normoxia ([6]; hypoxia 0.2% 24 h, FIG. 12): significant higher binding; binding at CA IX knock down cells [7]: No significant binding; binding upon reoxygenation ([8]; 24 h hypoxia then 1 h air, listed as FC11-489A bis): reduced upon reoxygenation to levels similar as normoxia exposure; also recorded: dramatically reduced; binding (immunofluorescence), hypoxia versus normoxia ([8]; hypoxia 0.2% 24 h, FIG. 14/15, listed as FC11-489A bis): significant higher binding; binding at CA IX knock down cells [9]: lower for all experimental conditions compared to the EV/2 cells; also recorded: No significant binding; binding upon reoxygenation versus hypoxic conditions ([10]; 24 h hypoxia then 1 h air): dramatically reduced; binding (mean fluorescence intensity), hypoxia versus normoxia ([10]; hypoxia 0.2% 24 h, FIG. 13): significant higher binding; binding at CA IX knock down cells [11]: No significant binding

— US20130053392A1, “CARBONIC ANHYDRASE INHIBITORS” (priority 2010, published 2013)
